Laboratory results published in patent publication US20190298702A1, “COMPOSITIONS AND METHODS FOR TREATING PRURITUS” (priority 2018, published 2019).
Structures can show the parent of a compound that is named as a salt. Where two headings read alike, the source gives them in different places.

Legend:
[1] = Whole blood concentration of nalbuphine after the scratching observation; type: in vivo; settings: ICR, mouse, subcutaneous, 30 mg/kg, SC at 0.5 hour, read-out: effective systemic concentration of nalbuphine (whole blood)
Description: Immediately after the scratching observation of Example 11, whole blood was collected from each mouse via the vena cava, and the nalbuphine concentration in each sample was determined.
Immediately after the scratching observation of Example 14, whole blood was collected from each mouse via the vena cava, and the nalbuphine concentration in each sample was determined.

[2] = tested on: substance P-induced scratching; test: Mouse substance P-induced scratching model, topical application; type: in vivo; settings: 30 mg/kg, SC, 0.5 hour post treatment
Description: Groups of 10 or 20 male ICR mice weighing 23±3 grams were used. One day before testing, hair was removed at the substance P injection sites. […] Substance P (250 nmol/site) was injected intradermally (ID) in a volume of 50 μL/site into the rostral portion of the back (the same region as test compound application). As reference, nalbuphine HCl was injected subcutaneously on the lower back region (different site as Substance P challenge). The scratching behavior was recorded for 30 minutes by visual observation immediately after substance P injection.
The time-course and antipruritic effects of the Ointment formulations via topical application were investigated in the mouse substance P-induced scratching model according to Example 11. On the testing day, the tested formulations (TA-1, TA-2, TA-3, and TA-4) were applied topically on the rostral portion of the back (2×2 cm region) at 4 hours prior to substance P challenge. 15 male ICR mice were used for each group. As reference, nalbuphine HCl was injected subcutaneously on the lower back region (different site as Substance P challenge). The scratching behavior was recorded for 30 minutes by visual observation immediately after substance P injection.

[3] = tested on: substance P-induced scratching; test: Mouse substance P-induced scratching model, subcutaneous SDE; type: in vivo; settings: for substance P-induced scratching bouts: SC, 75 mg/mL oily formulation at 10 mL/kg, 30-minute observation
Description: The time-course and antipruritic effects of SDE via subcutaneous (SC) injection were studied in the mouse substance P-induced scratching model to evaluate the effect of SDE's antipruritic effect. In this study, SDE was dissolved in an oily formulation, with a concentration at 75 mg/mL.
Substance P, the endogenous ligand for the neurokinin-1 (NK-1) receptor, is a significant mediator of pruritus. […] Intradermal injection of substance P elicits an itch sensation in human subjects, and an associated itch response in mice.
(§1) Compared to the placebo control group, SDE (administered SC at 10 mL/kg) was associated with significant reduction of substance P-induced scratching behaviors at 4 hours (18.8±11.8 bouts) and 12 hours (24.5±4.1 bouts) post treatment. […] However, SC administration of SDE would cause high concentration of nalbuphine in the circulation and induce serious adverse effects.

[4] = Ex vivo skin drug permeation and penetration, MedFlux-HT diffusion cell system; type: in vitro ADME, human
Description: The ten formulations listed in Table 7 were used to evaluate the penetration of drug into human skin using the MedFlux-HT™ diffusion cell system. In this study, human skins with about 500±50 μm thickness were fixed on the MedFlux-HT diffusion cell system. About 10 mg of test formulation was applied to the epidermal side of the human skin, and a continued flow of receiver fluid was place at the opposite side of the skin. Because SDE is rapidly converted into nalbuphine by the esterases in the biological environment, both nalbuphine and SDE concentration were measured to access the drug permeation status. The concentration of nalbuphine and SDE in receiver fluid indicated the amount of drug that had penetrated through the human skin.
Tissue levels of SDE and nalbuphine in the dermis and epidermis, and the amount of SDE and nalbuphine in the receiver fluids over 24 hours were determined and are shown in FIG. 1A and FIG. 1B. SDE and nalbuphine were both detected in receiver fluid, dermis, and epidermis. The cumulative amounts of SDE and nalbuphine in receiver fluid recovered at 24 hours were 89-1978 ng/cm^2 and 169-978 ng/cm^2, respectively.
These formulations were used to evaluate the penetration of drug into human skin using the MedFlux-HT™ diffusion cell system according to Example 8.

[5] = Adverse signs and mortality after SC administration of SDE; type: in vivo, mouse; settings: SC at 10 mL/kg
Description: as §1

[6] = type: physicochemical
Description: Individual excipients were investigated to determine their compatibility with SDE (at 50° C. for 2 and 4 weeks) for potential use in a topical formulation.

[7] = four ointment formulations of Table 13

## Oc1ccc2c3c1O[C@H]1[C@@H](O)CC[C@@]4(O)[C@@H](C2)N(CC2CCC2)CC[C@]314 [nalbuphine HCl]
[1]
  concentration at 0.5 h: ~207 ng/mL
[2]; versus respective control (Example 11)
  substance P-evoked scratching behaviors: significantly reduced
[2]; versus respective control (Example 14)
  substance P-evoked scratching behaviors: significantly reduced

## O=C(CCCCCCCCC(=O)Oc1ccc2c3c1O[C@H]1[C@@H](O)CC[C@@]4(O)[C@@H](C2)N(CC2CCC2)CC[C@]314)Oc1ccc2c3c1O[C@H]1[C@@H](O)CC[C@@]4(O)[C@@H](C2)N(CC2CCC2)CC[C@]314 [SDE, Sebacoyl Dinalbuphine Ester]
[3]; SC at 10 mL/kg, 24 hours
  suppressive effect on scratching responses: 45%
[3]; SC at 10 mL/kg, 48 hours
  attenuation of scratching responses: loss of activity
[3]; 4 hours post treatment
  substance P-induced scratching bouts: 18.8±11.8 bouts
[3]; 12 hours post treatment
  substance P-induced scratching bouts: 24.5±4.1 bouts
[4]; [7]
  concentration of SDE in receiver fluid versus concentration of nalbuphine: comparable
  concentrations of SDE in dermis and epidermis versus concentrations of nalbuphine: much greater
[4]; ten formulations of Table 7
  concentration of SDE in receiver fluid versus concentration of nalbuphine: comparable
  concentrations of SDE in dermis and epidermis versus concentrations of nalbuphine: 10 fold
[5]
  adverse signs observed: signs of depression, tremor and hypothermia
[5]; 24 hours
  mortality rate: 7.7%
[5]; 48 hours
  mortality rate: 35.7%
[6]; combination of BHT with Transcutol P compared to Transcutol P alone, 50° C.
  SDE degradation: reduce the degree of SDE degradation
[6]; in Castor oil, 50° C., 2 weeks
  SDE purity (%): 80.20%
[6]; in Castor oil, 50° C., 4 weeks
  SDE purity (%): 75.71%
[6]; in Castor oil, T = 0
  SDE purity (%): 100.00%
[6]; in Diisopropyl adipate, 50° C., 2 weeks
  SDE purity (%): 99.60%
[6]; in Diisopropyl adipate, 50° C., 4 weeks
  SDE purity (%): 99.49%
[6]; in Diisopropyl adipate, T = 0
  SDE purity (%): 100.00%
[6]; in Isopropyl myristate (IPM), 50° C., 2 weeks
  SDE purity (%): 99.51%
[6]; in Isopropyl myristate (IPM), 50° C., 4 weeks
  SDE purity (%): 85.75%
[6]; in Isopropyl myristate (IPM), T = 0
  SDE purity (%): 100.00%
[6]; in Miglyol 810 (Caprylic/Capric triglyceride), 50° C., 2 weeks
  SDE purity (%): 99.66%
[6]; in Miglyol 810 (Caprylic/Capric triglyceride), 50° C., 4 weeks
  SDE purity (%): 99.69%
[6]; in Miglyol 810 (Caprylic/Capric triglyceride), T = 0
  SDE purity (%): 100.00%
[6]; in PEG 400 (pH 4-5) + BHT, 50° C., 2 weeks
  SDE purity (%): 96.38%
[6]; in PEG 400 (pH 4-5) + BHT, 50° C., 4 weeks
  SDE purity (%): 93.24%
[6]; in PEG 400 (pH 4-5) + BHT, T = 0
  SDE purity (%): 98.31%
[6]; in PEG 400 (pH 4-5), 50° C., 2 weeks
  SDE purity (%): 94.01%
[6]; in PEG 400 (pH 4-5), 50° C., 4 weeks
  SDE purity (%): 96.97%
[6]; in PEG 400 (pH 4-5), T = 0
  SDE purity (%): 100.00%
[6]; in Super refined PEG 400 (pH 4-5), 50° C., 2 weeks
  SDE purity (%): 93.17%
[6]; in Super refined PEG 400 (pH 4-5), 50° C., 4 weeks
  SDE purity (%): 92.23%
[6]; in Super refined PEG 400 (pH 4-5), T = 0
  SDE purity (%): 100.00%
[6]; in Transcutol P + BHT, 50° C., 2 weeks
  SDE purity (%): 14.65%
[6]; in Transcutol P + BHT, 50° C., 4 weeks
  SDE purity (%): 4.21%
[6]; in Transcutol P + BHT, T = 0
  SDE purity (%): 96.90%
[6]; in Transcutol P, 50° C., 2 weeks
  SDE purity (%): 5.69%
[6]; in Transcutol P, 50° C., 4 weeks
  SDE purity (%): 1.50%
[6]; in Transcutol P, T = 0
  SDE purity (%): 94.31%
[6]; in deionized water (at both pH 4 and 5) and Transcutol P, 50° C. for 2 and 4 weeks
  change of SDE purity: Significant reductions
[6]; in water (pH 4), 50° C., 2 weeks
  SDE purity (%): 28.91%
[6]; in water (pH 4), 50° C., 4 weeks
  SDE purity (%): 14.47%
[6]; in water (pH 4), T = 0
  SDE purity (%): 96.61%
[6]; in water (pH 5), 50° C., 2 weeks
  SDE purity (%): 28.74%
[6]; in water (pH 5), 50° C., 4 weeks
  SDE purity (%): 5.43%
[6]; in water (pH 5), T = 0
  SDE purity (%): 96.83%
